Results from PubChem BioAssay (NCI).
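Protocol summary: plate cells (96-well), add compound at 5 concentrations, incubate 48 h, interpolate endpoints linearly. At the GI50, growth is halved. TGI denotes the concentration required for complete inhibition of growth.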

What was measured:
Experiment in all cases: DTP human tumour cell line panel, 48 h
SF-539 CNS = test system: SF-539 CNS
COLO 205 colon = test system: COLO 205 colon
MDA-MB-435 = test system: MDA-MB-435
SW-620 colon = test system: SW-620 colon
TK-10 renal = test system: TK-10 renal
UACC-62 melanoma = test system: UACC-62 melanoma
SK-MEL-28 melanoma = test system: SK-MEL-28 melanoma
UO-31 renal = test system: UO-31 renal
HCT-15 colon = test system: HCT-15 colon
HOP-92 NSCLC = test system: HOP-92 NSCLC
IGROV1 ovarian = test system: IGROV1 ovarian
ACHN renal = test system: ACHN renal
CCRF-CEM leukemia = test system: CCRF-CEM leukemia
SN12C renal = test system: SN12C renal
A549 NSCLC = test system: A549 NSCLC
NCI-H226 lung = test system: NCI-H226 lung
HT29 colon = test system: HT29 colon
SNB-75 CNS = test system: SNB-75 CNS
CAKI-1 renal = test system: CAKI-1 renal
A498 renal = test system: A498 renal
HS 578T breast = test system: HS 578T breast
SNB-19 CNS = test system: SNB-19 CNS
KM12 colon = test system: KM12 colon
PC-3 prostate = test system: PC-3 prostate
M14 melanoma = test system: M14 melanoma
SR leukemia = test system: SR leukemia
HCC-2998 colon = test system: HCC-2998 colon
BT-549 breast = test system: BT-549 breast
EKVX NSCLC = test system: EKVX NSCLC
MCF7 breast = test system: MCF7 breast
NCI-H460 lung = test system: NCI-H460 lung
LOX IMVI melanoma = test system: LOX IMVI melanoma
OVCAR-8 ovarian = test system: OVCAR-8 ovarian
OVCAR-5 ovarian = test system: OVCAR-5 ovarian
DU-145 prostate = test system: DU-145 prostate
786-0 renal = test system: 786-0 renal
MDA-N = test system: MDA-N
HCT-116 colon = test system: HCT-116 colon
UACC-257 melanoma = test system: UACC-257 melanoma
SK-MEL-5 melanoma = test system: SK-MEL-5 melanoma
K-562 leukemia = test system: K-562 leukemia
MDA-MB-231 breast = test system: MDA-MB-231 breast
T-47D breast = test system: T-47D breast
RPMI-8226 leukemia = test system: RPMI-8226 leukemia
OVCAR-4 ovarian = test system: OVCAR-4 ovarian
HOP-62 NSCLC = test system: HOP-62 NSCLC
HL-60(TB) leukemia = test system: HL-60(TB) leukemia
MOLT-4 leukemia = test system: MOLT-4 leukemia
U251 CNS = test system: U251 CNS
SF-295 CNS = test system: SF-295 CNS
SF-268 CNS = test system: SF-268 CNS
NCI-H23 lung = test system: NCI-H23 lung
NCI/ADR-RES ovarian = test system: NCI/ADR-RES ovarian
RXF 393 renal = test system: RXF 393 renal
LXFL 529 NSCLC = test system: LXFL 529 NSCLC
NCI-H522 lung = test system: NCI-H522 lung
DLD-1 colon = test system: DLD-1 colon
MALME-3M melanoma = test system: MALME-3M melanoma
SK-MEL-2 melanoma = test system: SK-MEL-2 melanoma
OVCAR-3 ovarian = test system: OVCAR-3 ovarian
KM20L2 colon = test system: KM20L2 colon
DMS 273 small cell lung = test system: DMS 273 small cell lung
SK-OV-3 ovarian = test system: SK-OV-3 ovarian
HOP-18 NSCLC = test system: HOP-18 NSCLC
SNB-78 CNS = test system: SNB-78 CNS

## O=C1N2CCN=C2c2ccccc2C1(O)c1ccccc1 (stereo not given)
SF-539 CNS
  TGI: > 100 µM
COLO 205 colon
  TGI: > 100 µM
MDA-MB-435
  TGI: > 100 µM
SW-620 colon
  TGI: > 100 µM
TK-10 renal
  TGI: > 100 µM
UACC-62 melanoma
  TGI: > 100 µM
SK-MEL-28 melanoma
  TGI: > 100 µM
UO-31 renal
  TGI: > 100 µM
HCT-15 colon
  TGI: > 100 µM
HOP-92 NSCLC
  TGI: > 100 µM
IGROV1 ovarian
  TGI: > 100 µM
ACHN renal
  TGI: > 100 µM
CCRF-CEM leukemia
  TGI: > 100 µM
SN12C renal
  TGI: > 100 µM
A549 NSCLC
  TGI: > 100 µM
NCI-H226 lung
  TGI: > 100 µM
HT29 colon
  TGI: > 100 µM
SNB-75 CNS
  TGI: > 100 µM
CAKI-1 renal
  TGI: > 100 µM
A498 renal
  TGI: > 100 µM
HS 578T breast
  TGI: > 100 µM
SNB-19 CNS
  TGI: > 100 µM
KM12 colon
  TGI: > 100 µM
PC-3 prostate
  TGI: > 100 µM
M14 melanoma
  TGI: > 100 µM
SR leukemia
  TGI: > 100 µM
HCC-2998 colon
  TGI: > 100 µM
BT-549 breast
  TGI: > 100 µM
EKVX NSCLC
  TGI: > 100 µM
MCF7 breast
  TGI: > 100 µM
NCI-H460 lung
  TGI: > 100 µM
LOX IMVI melanoma
  TGI: > 100 µM
OVCAR-8 ovarian
  TGI: > 100 µM
OVCAR-5 ovarian
  TGI: > 100 µM
DU-145 prostate
  TGI: > 100 µM
786-0 renal
  TGI: > 100 µM
MDA-N
  TGI: > 100 µM
HCT-116 colon
  TGI: > 100 µM
UACC-257 melanoma
  TGI: > 100 µM
SK-MEL-5 melanoma
  TGI: > 100 µM
K-562 leukemia
  TGI: > 100 µM
MDA-MB-231 breast
  TGI: > 100 µM
T-47D breast
  TGI: > 100 µM
RPMI-8226 leukemia
  TGI: > 100 µM
OVCAR-4 ovarian
  TGI: > 100 µM
HOP-62 NSCLC
  TGI: > 100 µM
HL-60(TB) leukemia
  TGI: > 100 µM
MOLT-4 leukemia
  TGI: > 100 µM
U251 CNS
  TGI: > 100 µM
SF-295 CNS
  TGI: > 100 µM
SF-268 CNS
  TGI: > 100 µM
NCI-H23 lung
  TGI: > 100 µM
NCI/ADR-RES ovarian
  TGI: > 100 µM

## N.N.NCCCCN.O=C([O-])CCl.O=C([O-])CCl.O=C([O-])CCl.O=C([O-])CCl.[Pt+4].[Pt+4]
SF-539 CNS
  TGI: > 50 µM
COLO 205 colon
  TGI: > 50 µM
RXF 393 renal
  TGI: > 50 µM
LXFL 529 NSCLC
  GI50: > 50 µM
  TGI: > 50 µM
SW-620 colon
  TGI: > 50 µM
TK-10 renal
  TGI: > 50 µM
UACC-62 melanoma
  TGI: > 50 µM
NCI-H522 lung
  TGI: > 50 µM
SK-MEL-28 melanoma
  TGI: > 50 µM
UO-31 renal
  TGI: > 50 µM
HCT-15 colon
  TGI: > 50 µM
HOP-92 NSCLC
  TGI: > 50 µM
IGROV1 ovarian
  TGI: > 50 µM
ACHN renal
  TGI: > 50 µM
CCRF-CEM leukemia
  TGI: > 50 µM
SN12C renal
  GI50: 9.99 µM
  TGI: 49.8 µM
A549 NSCLC
  TGI: > 50 µM
DLD-1 colon
  GI50: > 50 µM
  TGI: > 50 µM
HT29 colon
  TGI: > 50 µM
MALME-3M melanoma
  TGI: > 50 µM
SNB-75 CNS
  TGI: > 50 µM
A498 renal
  TGI: > 50 µM
KM12 colon
  TGI: > 50 µM
SK-MEL-2 melanoma
  TGI: > 50 µM
M14 melanoma
  TGI: > 50 µM
SR leukemia
  TGI: > 50 µM
HCC-2998 colon
  TGI: > 50 µM
EKVX NSCLC
  TGI: > 50 µM
OVCAR-3 ovarian
  TGI: > 50 µM
NCI-H460 lung
  TGI: > 50 µM
LOX IMVI melanoma
  TGI: > 50 µM
OVCAR-8 ovarian
  TGI: > 50 µM
OVCAR-5 ovarian
  TGI: > 50 µM
786-0 renal
  TGI: > 50 µM
HCT-116 colon
  TGI: > 50 µM
UACC-257 melanoma
  TGI: > 50 µM
SK-MEL-5 melanoma
  TGI: > 50 µM
K-562 leukemia
  TGI: > 50 µM
KM20L2 colon
  GI50: > 50 µM
  TGI: > 50 µM
DMS 273 small cell lung
  GI50: 36 µM
  TGI: > 50 µM
SK-OV-3 ovarian
  TGI: > 50 µM
RPMI-8226 leukemia
  GI50: > 50 µM
  TGI: > 50 µM
OVCAR-4 ovarian
  TGI: > 50 µM
HOP-62 NSCLC
  TGI: > 50 µM
HL-60(TB) leukemia
  TGI: > 50 µM
MOLT-4 leukemia
  TGI: > 50 µM
U251 CNS
  TGI: > 50 µM
SF-295 CNS
  TGI: > 50 µM
HOP-18 NSCLC
  GI50: > 50 µM
  TGI: > 50 µM
SNB-78 CNS
  GI50: > 50 µM
  TGI: > 50 µM
SF-268 CNS
  TGI: > 50 µM
NCI-H23 lung
  TGI: > 50 µM

## COc1ccc(/C=C/C=C2C(=O)NC(=S)NC2=O)cc1
SF-539 CNS
  TGI: 15.8 µM
COLO 205 colon
  TGI: 13.5 µM
RXF 393 renal
  TGI: 16.8 µM
MDA-MB-435
  TGI: 7.77 µM
SW-620 colon
  TGI: 3.37 µM
TK-10 renal
  TGI: 7.33 µM
UACC-62 melanoma
  TGI: 9.1 µM
SK-MEL-28 melanoma
  TGI: 3.45 µM
UO-31 renal
  TGI: 19.9 µM
HCT-15 colon
  TGI: 8.68 µM
HOP-92 NSCLC
  TGI: 25.4 µM
IGROV1 ovarian
  TGI: 15.4 µM
ACHN renal
  TGI: 16.7 µM
CCRF-CEM leukemia
  TGI: 5.69 µM
SN12C renal
  TGI: 19.5 µM
A549 NSCLC
  TGI: 46.2 µM
NCI-H226 lung
  TGI: 44.6 µM
HT29 colon
  TGI: 19.6 µM
MALME-3M melanoma
  TGI: 14.1 µM
SNB-75 CNS
  TGI: 47.2 µM
CAKI-1 renal
  TGI: 23.8 µM
A498 renal
  TGI: > 100 µM
HS 578T breast
  TGI: > 56.6 µM
SNB-19 CNS
  TGI: 20 µM
KM12 colon
  TGI: 34.6 µM
SK-MEL-2 melanoma
  TGI: 35.3 µM
PC-3 prostate
  TGI: 43.8 µM
M14 melanoma
  TGI: 21.7 µM
SR leukemia
  TGI: 4.63 µM
HCC-2998 colon
  TGI: 21.3 µM
BT-549 breast
  TGI: 4.62 µM
EKVX NSCLC
  TGI: 25.7 µM
MCF7 breast
  TGI: 22 µM
OVCAR-3 ovarian
  TGI: 29 µM
NCI-H460 lung
  TGI: 30.6 µM
LOX IMVI melanoma
  TGI: 3.97 µM
OVCAR-8 ovarian
  TGI: 13.1 µM
OVCAR-5 ovarian
  TGI: 47.1 µM
DU-145 prostate
  TGI: 17.7 µM
786-0 renal
  TGI: 5.47 µM
MDA-N
  TGI: 15.2 µM
HCT-116 colon
  TGI: 13.7 µM
UACC-257 melanoma
  TGI: 22 µM
SK-MEL-5 melanoma
  TGI: 26.1 µM
K-562 leukemia
  TGI: > 31.9 µM
MDA-MB-231 breast
  TGI: 4.57 µM
SK-OV-3 ovarian
  TGI: 33.2 µM
T-47D breast
  TGI: > 100 µM
RPMI-8226 leukemia
  TGI: 18.2 µM
OVCAR-4 ovarian
  TGI: > 60.7 µM
HOP-62 NSCLC
  TGI: > 49.8 µM
MOLT-4 leukemia
  TGI: 10 µM
U251 CNS
  TGI: 5.1 µM
SF-295 CNS
  TGI: 29.9 µM
SF-268 CNS
  TGI: 26.8 µM
NCI-H23 lung
  TGI: 21 µM
NCI/ADR-RES ovarian
  TGI: 12.3 µM
